Several values for one entry are separate records, joined by “and”; a condition that tells them apart may be missing. Equal entries are not always repeated.
Key:
[1] = Henderson-Hasselbalch calculation of percent in acid form; details: calculated; for Percent in Acid Form at pH 6.4: pH 6.4 (acidic areas of tumors); for Percent in Acid Form at pH 7.4: pH 7.4 (normal tissues)
Text: The interstitial space in normal tissues is generally at or very near pH 7.4, and in acidic areas of tumors a pH of around 6.4 is fairly typical or readily achievable by known methods. If one knows the pKa value of an acid substance (pKa is the pH at which the acid moiety is half ionized in aqueous solution) one can use the Henderson-Hasselbalch equation (pH=pKa+log [A−]/[HA]) to calculate what fraction of that substance will be in the acid form at any selected pH. […] It should be noted that for carboxyl-containing substances whose acid forms are water soluble, the pKa and pS values are quite similar.
In these calculations the Henderson-Hasselbalch equation was used to calculate the relative concentration of salt and acid forms at a given pH for a substance having acid moieties with a specified pKa or pS value. Then a binomial expansion was used to calculate the concentration of the all-acid form for an onco tool containing 2 or 3 pH-switch components.

tumors = details: tumor-bearing mice, reduction of about 0.3 pH units in the tumors; cited from earlier work
physchem = assay: physchem
Protocol: In regard to initial testing, a simple pH titration of the prospective pH-switch structure in physiological saline is fast and easy and provides useful information about the key properties one is attempting to achieve.
Typically new structures that may be suitable as advanced pH-switch components are first assessed for their pS value. This entails preparing the sodium salt form of the structure and dissolving it at a concentration of 20 milliMolar in 15 ml of 0.15 Molar NaCl (deareated to remove CO2). […] A plot of pH versus volume of added HCl affords the pS value.
The sodium salts of compounds shown in FIG. 11a (designed to form internal acid-specific H-bond) and 11b (designed to form non-acid-specific H-bonds) were titrated in aqueous solution.

| pKa (physchem) | minimum of first derivative of the titration curve (pH) (physchem; titrated in water / aqueous solution) | Compound | Percent in Acid Form at pH 6.4 [1] | Percent in Acid Form at pH 7.4 [1] | improvement in tumor growth delay (tumors) |
| --- | --- | --- | --- | --- | --- |
|  |  | O=C(O)CCCc1ccc(N(CCCl)CCCl)cc1 [Chlorambucil] | 20.1% | 2.4% | 1.7 fold |
| 5.5 |  | CCCCCCCC(=O)O [octanoic acid] |  |  |  |
|  |  | CCC(=O)O [propionic acid] | 2.9% | 0.3% |  |
|  | ~4.0 and ~5.6 | CCC[N+]1([O-])CCC(C(=O)O)CC1 (stereo not shown) [structure iii in FIG. 15b, N-oxide of N-propylisonipocotic acid] |  |  |  |

Reference: patent US20070231256A1, “Compositions and methods for detecting and treating tumors containing acidic areas” (priority 2006, published 2007)
